Results reported in patent US20110065674A1, “METHODS AND COMPOSITIONS FOR IMPROVING COGNITIVE FUNCTION” (priority 2008, published 2011).
“Also recorded” adds a separate entry of the source.

What was measured:
[1] = system: memory impaired aged rats; assay: 6 hour-delay water maze spatial memory task in aged-impaired rats; assay type: in vivo, rat; details: AI rats, FIG. 2
Protocol: (§1) AI Rats were treated with sodium valproate (“VPA”) chronically and subcutaneously at a rate of 100 mg/kg/day via implanted osmotic minipump, and then trained and tested in a new water maze environment. The water maze used here was housed in a different building and was surrounded by black curtains with a novel set of white patterns. The training protocol used was based on a modified water maze task known to be highly hippocampal-dependent (de Hoz et al., 2005; Steele & Morris, 1999). Unlike the traditional water maze protocol (such as that used in the background assessment, described above) wherein the escape platform location remained constant throughout training, the escape platform location in this spatial memory version of the task varied from day to day.
The test was comprised of a training phase followed by a memory retention test. Each day, during the training phase, rats were given six trials to locate the submerged escape platform. On each trial, a rat was released in the maze from one of four equally spaced starting positions around the perimeter of the pool. The starting position varied from trial to trial. […] The rat was then removed from the platform and placed in a holding cage for another 40 s before the next trial. The length of the path the rat took while swimming in the maze was measured in each trial. […]

muscarinic receptor = assay: Muscarinic receptor-stimulated GTP-Eu binding assay on hippocampal membranes of treated rats; assay type: biochemical, rat; details: chronic low dose valproate, memory impaired aged rats, vs vehicle treated; FIG. 1
Protocol: Membrane preparation: Rats were decapitated and the hippocampus was dissected on ice then frozen at −80° C. All the tissue was stored in −80° C. and processed for GTP-Eu binding. For the GTP-Eu binding assay, membranes were prepared from frozen tissue by gentle homogenization with a Dounce homogenizer in five volumes of ice-cold 50 mM Tris buffer, pH 7.4, containing 0.2 mM EGTA and protease inhibitors. After centrifuging at 40,000×g at 4° C. for 10 min, the pellets were resuspended in 30 ml of ice-cold Tris buffer. The steps described above were repeated twice, and then the final pellets were resuspended in assay buffer (50 mM Tris, 0.2 mM EGTA, 5 mM MgCl2, and 100 mM NaCl, pH 7.4) (Zhang et al 2007).
Muscarinic receptor-stimulated GTP-Eu binding assay. GTP-Eu binding was assessed using time-resolved fluorescence (Wallac 1420, Perkin-Elmer). The membranes and all the reagents were diluted with assay buffer. Samples were added into a 96-well filter plate in a counter-balanced manner based upon age and behavioral performance, although the experimenter was blind to the identification of the groups at the time of the assay. […] The integration of GTP-Eu into the membrane was measured by excitation of the samples at 340 nm and reading the emission at 615 nm using time-resolved fluorescence (Zhang et al 2007, Nicolle et al 1999). […]

[2] = system: Age-Impaired (AI) Long-Evans rats; assay: 24 hour-delay Morris Water Maze memory retention trial in aged-impaired rats; assay type: in vivo, rat; details: for spatial memory retention (time in target quadrant) in 24-hr retention trial: donepezil alone 0.5, 1.0 and 2.0 mg/kg i.p. before training
Protocol: Age-Impaired (AI) Long-Evans rats (as characterized above) were tested for their memory of new spatial information in the MWM, under different drug/control treatment conditions: vehicle control, donezepil only, VPA only, and combination of VPA and donezepil. Donezepil was administered at a range of doses (0.5, 1.0 or 2.0 mg/kg) 30 minutes to 1 hour prior to training trials. VPA was administered chronically and subcutaneously at a rate of 100 mg/kg/day via implanted osmotic minipump.
AI rats were given six training trials per training day with a 60-sec inter-trial interval between each training trial for two consecutive days. On each training trial, the rat was released in the maze from one of four equally spaced starting positions around the perimeter of the pool. […] 30 minutes to 1 hour prior to all the training trials on each training day, AI rats were pretreated with one of four drug conditions: 1) vehicle control (0.9% saline solution); 2) 0.5 mg/kg donpepzil; and 3) 1.0 mg/kg donpepzil; and 4) 2.0 mg/kg donpepzil through intraperitoneal (i.p.) injection.
The same AI rats were used for the entire set of experiments so that each treatment condition was tested on each of the rats. Therefore, to counterbalance any potential bias, both the location of the escape platform and the spatial cues surrounding the water maze were different in the four treatment conditions. In other words, using one set of locations and spatial cues, two rats were treated with saline control solution, two with 0.5 mg/kg donpepzil, two with 1.0 mg/kg donpepzil and two with 2.0 mg/kg donpepzil. These groups were cycled through 3 more sets of locations and spatial cues, with each group of two receiving a different treatment each time, so that at the end, each treatment condition was tested in eight rats.
After the completion of the twelve training trials (over the two days), the rats were returned to their home cages in the colony room for a 24-hr waiting period, in preparation for the subsequent memory retention test. After the waiting period, the rat was given one testing trial (the “retention trial”), which was the same MWM task as the training trials, but with the escape platform removed.
For the retention trial, the MWM circular pool was divided into 4 quadrants. The particular quadrant where the escape platform was placed in the training trials is referred to as the “target quadrant”. The particular region where the platform was located in the training trials is referred to as the “target annulus”. In the retention trial, the time the AI rats spent swimming in the target quadrant was measured and further plotted as a percentage of total swimming time. The time the AI rats spend in the target annulus was also measured. […]

[3] = Blood total VPA level under chronic subcutaneous administration; assay type: in vivo, rat; details: chronic subcutaneous administration of 100 mg/kg/day
Protocol: as §1
After the 6-hr waiting period, the rats were returned to the water maze for a test of spatial memory with the submerged platform located in the same position as in the training trials. Each rat was given 60 s to locate the platform. Rats were trained and tested in this manner for five consecutive days. Performances on the last three days were averaged for analysis. […] The chronic subcutaneous administration of 100 mg/kg/day VPA results in a blood total VPA level of 10 μg/ml plasma (10 μg/ml total VPA).

SMILES | memory retention (forgetting, path length) after a 6-hr delay ([1]; VPA 100 mg/kg/day chronic s.c. minipump, vs saline or VPA 50 mg/kg/day) | performance (path length) at the end of the training phase ([1]; chronic s.c. minipump, Trials 1-6, compared with saline) | muscarinic receptor-stimulated GTP-Eu binding in the hippocampus (percentage of young rat) (muscarinic receptor) | spatial memory retention in 24-hr retention trial ([2]; VPA only, 100 mg/kg/day chronic s.c. minipump, FIG. 3, 100 mg/kg/day) | blood total VPA level [3] [μg/ml plasma] | spatial memory retention (time in target quadrant) in 24-hr retention trial ([2]; FIG. 3) | spatial memory retention (time in target quadrant) in 24-hr retention trial ([2]; FIG. 3, listed as Donezepil)
CCCC(CCC)C(=O)[O-].[Na+] [VPA, sodium valproate] | showed less forgetting; also recorded: improved the performance | performed at a comparable level | effectively restore post-synaptic muscarinic coupling; also recorded: increases muscarinic receptor-GTP-Eu binding | no improvement seen | 10 |  | 
COc1cc2c(cc1OC)C(=O)C(CC1CCN(Cc3ccccc3)CC1)C2 (stereo not shown) [donezepil, donepezil] |  |  |  |  |  | did not significantly improve | no effect
